The values that follow come from ChEMBL document CHEMBL1158113, “Terpenoids and a diarylheptanoid from Zingiber ottensii” (J Nat Prod, 2006).

This experiment concerns Radical scavenging activity. Description: Antioxidant activity assessed as DPPH free radical scavenging activity after 30 mins by multilabel counter. Format: functional. In general terms: Loss of DPPH colour is used to gauge radical scavenging.
A word on the IC50: it is the concentration needed to halve the response being measured. Regarding `COc1cc(CC[C@@H](O)C[C@@H](O)CCc2ccc(O)c(OC)c2)ccc1O`, the IC50 was 20.6 µM.

Consider `COc1cc(CC[C@H](O)C[C@@H](O)CCc2ccc(O)c(OC)c2)ccc1O`, for which the IC50 was 20.1 µM.

With `COc1cc(CC[C@H](O)C[C@@H](O)CCc2cc(OC)c(O)c(OC)c2)ccc1O`, the IC50 turned out to be 16.4 µM. To `COc1cc(CC[C@@H](O)C[C@@H](O)CCc2ccc(O)c(O)c2)ccc1O` (relative stereo) belongs 24 µM; to `Cc1c(C)c2c(c(C)c1O)CC[C@@](C)(CCC[C@H](C)CCC[C@H](C)CCCC(C)C)O2` [ALPHA-TOCOPHEROL], 37.5 µM. `O=C1O[C@H]([C@@H](O)CO)C(O)=C1O` [ASCORBIC ACID]: the IC50 came out at 35.6 µM.
